Results reported in PubChem BioAssay (NCI).
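Cultured in 96-well plates, cells were exposed to test compound for 48 hours across five concentrations. The concentration for 50% growth inhibition is given as GI50. TGI marks complete inhibition of growth.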

How the values were obtained:
Assay in all cases: NCI anticancer screen, dose series, 48 h
LOX IMVI melanoma = test system: LOX IMVI melanoma
M14 melanoma = test system: M14 melanoma
A549 NSCLC = test system: A549 NSCLC
TK-10 renal = test system: TK-10 renal
HT29 colon = test system: HT29 colon
SW-620 colon = test system: SW-620 colon
NCI-H23 lung = test system: NCI-H23 lung
OVCAR-5 ovarian = test system: OVCAR-5 ovarian
KM12 colon = test system: KM12 colon
SK-MEL-28 melanoma = test system: SK-MEL-28 melanoma
SNB-75 CNS = test system: SNB-75 CNS
EKVX NSCLC = test system: EKVX NSCLC
MOLT-4 leukemia = test system: MOLT-4 leukemia
NCI/ADR-RES ovarian = test system: NCI/ADR-RES ovarian
NCI-H522 lung = test system: NCI-H522 lung
MDA-MB-468 breast = test system: MDA-MB-468 breast
K-562 leukemia = test system: K-562 leukemia
786-0 renal = test system: 786-0 renal
SF-295 CNS = test system: SF-295 CNS
NCI-H226 lung = test system: NCI-H226 lung
HOP-92 NSCLC = test system: HOP-92 NSCLC
SF-268 CNS = test system: SF-268 CNS
HCT-15 colon = test system: HCT-15 colon
MDA-MB-435 = test system: MDA-MB-435
SN12C renal = test system: SN12C renal
U251 CNS = test system: U251 CNS
A498 renal = test system: A498 renal
T-47D breast = test system: T-47D breast
OVCAR-8 ovarian = test system: OVCAR-8 ovarian
RXF 393 renal = test system: RXF 393 renal
SR leukemia = test system: SR leukemia
UACC-257 melanoma = test system: UACC-257 melanoma
SNB-19 CNS = test system: SNB-19 CNS
RPMI-8226 leukemia = test system: RPMI-8226 leukemia
SK-MEL-2 melanoma = test system: SK-MEL-2 melanoma
MALME-3M melanoma = test system: MALME-3M melanoma
CCRF-CEM leukemia = test system: CCRF-CEM leukemia
MDA-MB-231 breast = test system: MDA-MB-231 breast
PC-3 prostate = test system: PC-3 prostate
HL-60(TB) leukemia = test system: HL-60(TB) leukemia
UACC-62 melanoma = test system: UACC-62 melanoma
OVCAR-4 ovarian = test system: OVCAR-4 ovarian
SK-OV-3 ovarian = test system: SK-OV-3 ovarian
MCF7 breast = test system: MCF7 breast
COLO 205 colon = test system: COLO 205 colon
HOP-62 NSCLC = test system: HOP-62 NSCLC
ACHN renal = test system: ACHN renal
HCC-2998 colon = test system: HCC-2998 colon
OVCAR-3 ovarian = test system: OVCAR-3 ovarian
HCT-116 colon = test system: HCT-116 colon
UO-31 renal = test system: UO-31 renal
IGROV1 ovarian = test system: IGROV1 ovarian
CAKI-1 renal = test system: CAKI-1 renal
HS 578T breast = test system: HS 578T breast
SK-MEL-5 melanoma = test system: SK-MEL-5 melanoma
BT-549 breast = test system: BT-549 breast
NCI-H460 lung = test system: NCI-H460 lung
SF-539 CNS = test system: SF-539 CNS
DU-145 prostate = test system: DU-145 prostate

Cc1noc2c(Cc3ccccc3)nn(CC(=O)N/N=C/c3ccc(F)cc3)c(=O)c12
GI50 (LOX IMVI melanoma): 33 µM
TGI (LOX IMVI melanoma): > 100 µM
GI50 (M14 melanoma): 26.1 µM
TGI (M14 melanoma): > 100 µM
GI50 (A549 NSCLC): 46.2 µM
TGI (A549 NSCLC): > 100 µM
GI50 (TK-10 renal): 13.6 µM
TGI (TK-10 renal): 36.9 µM
GI50 (HT29 colon): > 100 µM
TGI (HT29 colon): > 100 µM
GI50 (SW-620 colon): > 100 µM
TGI (SW-620 colon): > 100 µM
GI50 (NCI-H23 lung): 17 µM
TGI (NCI-H23 lung): 41.7 µM
GI50 (OVCAR-5 ovarian): > 100 µM
TGI (OVCAR-5 ovarian): > 100 µM
GI50 (KM12 colon): > 100 µM
TGI (KM12 colon): > 100 µM
GI50 (SK-MEL-28 melanoma): > 100 µM
TGI (SK-MEL-28 melanoma): > 100 µM
GI50 (SNB-75 CNS): 8.25 µM
TGI (SNB-75 CNS): 32.2 µM
GI50 (EKVX NSCLC): > 100 µM
TGI (EKVX NSCLC): > 100 µM
GI50 (MOLT-4 leukemia): > 100 µM
TGI (MOLT-4 leukemia): > 100 µM
GI50 (NCI/ADR-RES ovarian): 21.3 µM
TGI (NCI/ADR-RES ovarian): > 100 µM
GI50 (NCI-H522 lung): 19.1 µM
TGI (NCI-H522 lung): 73.6 µM
GI50 (MDA-MB-468 breast): 16.1 µM
TGI (MDA-MB-468 breast): 57.8 µM
GI50 (K-562 leukemia): 84.4 µM
TGI (K-562 leukemia): > 100 µM
GI50 (786-0 renal): 3.13 µM
TGI (786-0 renal): 12.4 µM
GI50 (SF-295 CNS): 3.33 µM
TGI (SF-295 CNS): 17.3 µM
GI50 (NCI-H226 lung): 4.12 µM
TGI (NCI-H226 lung): 29.3 µM
GI50 (HOP-92 NSCLC): 9.56 µM
TGI (HOP-92 NSCLC): 27.8 µM
GI50 (SF-268 CNS): 24.6 µM
TGI (SF-268 CNS): > 100 µM
GI50 (HCT-15 colon): > 100 µM
TGI (HCT-15 colon): > 100 µM
GI50 (MDA-MB-435): > 100 µM
TGI (MDA-MB-435): > 100 µM
GI50 (SN12C renal): > 100 µM
TGI (SN12C renal): > 100 µM
GI50 (U251 CNS): 18.3 µM
TGI (U251 CNS): > 100 µM
GI50 (A498 renal): 11 µM
TGI (A498 renal): 33.7 µM
GI50 (T-47D breast): 5.62 µM
TGI (T-47D breast): > 100 µM
GI50 (OVCAR-8 ovarian): 27.9 µM
TGI (OVCAR-8 ovarian): > 100 µM
GI50 (RXF 393 renal): 5.4 µM
TGI (RXF 393 renal): 21.2 µM
GI50 (SR leukemia): > 100 µM
TGI (SR leukemia): > 100 µM
GI50 (UACC-257 melanoma): 78.1 µM
TGI (UACC-257 melanoma): > 100 µM
GI50 (SNB-19 CNS): 6.74 µM
TGI (SNB-19 CNS): 24.2 µM
GI50 (RPMI-8226 leukemia): > 100 µM
TGI (RPMI-8226 leukemia): > 100 µM
GI50 (SK-MEL-2 melanoma): 16.3 µM
TGI (SK-MEL-2 melanoma): 33.3 µM
GI50 (MALME-3M melanoma): 8.99 µM
TGI (MALME-3M melanoma): 38.5 µM
GI50 (CCRF-CEM leukemia): > 100 µM
TGI (CCRF-CEM leukemia): > 100 µM
GI50 (MDA-MB-231 breast): 4.92 µM
TGI (MDA-MB-231 breast): 21.8 µM
GI50 (PC-3 prostate): 66.1 µM
TGI (PC-3 prostate): > 100 µM
GI50 (HL-60(TB) leukemia): > 100 µM
TGI (HL-60(TB) leukemia): > 100 µM
GI50 (UACC-62 melanoma): 20.9 µM
TGI (UACC-62 melanoma): 66.8 µM
GI50 (OVCAR-4 ovarian): 3.95 µM
TGI (OVCAR-4 ovarian): > 100 µM
GI50 (SK-OV-3 ovarian): 4.4 µM
TGI (SK-OV-3 ovarian): 16 µM
GI50 (MCF7 breast): 66.5 µM
TGI (MCF7 breast): > 100 µM
GI50 (COLO 205 colon): > 100 µM
TGI (COLO 205 colon): > 100 µM
GI50 (HOP-62 NSCLC): 5.29 µM
TGI (HOP-62 NSCLC): 21 µM
GI50 (ACHN renal): 4.88 µM
TGI (ACHN renal): 24.1 µM
GI50 (HCC-2998 colon): > 100 µM
TGI (HCC-2998 colon): > 100 µM
GI50 (OVCAR-3 ovarian): 87.1 µM
TGI (OVCAR-3 ovarian): > 100 µM
GI50 (HCT-116 colon): 5.08 µM
TGI (HCT-116 colon): 77.3 µM
GI50 (UO-31 renal): 18 µM
TGI (UO-31 renal): > 100 µM
GI50 (IGROV1 ovarian): 22.5 µM
TGI (IGROV1 ovarian): 54.2 µM
GI50 (CAKI-1 renal): 6.13 µM
TGI (CAKI-1 renal): 32.1 µM
GI50 (HS 578T breast): 4.65 µM
TGI (HS 578T breast): 46.7 µM
GI50 (SK-MEL-5 melanoma): 33.2 µM
TGI (SK-MEL-5 melanoma): > 100 µM
GI50 (BT-549 breast): 14.5 µM
TGI (BT-549 breast): 37.8 µM
GI50 (NCI-H460 lung): 9.78 µM
TGI (NCI-H460 lung): > 100 µM
GI50 (SF-539 CNS): 16.7 µM
TGI (SF-539 CNS): 37.3 µM
GI50 (DU-145 prostate): > 100 µM
TGI (DU-145 prostate): > 100 µM
